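Following 48 hours of exposure in 96-well plates, responses at five concentrations were used to interpolate endpoints linearly. At the GI50, growth is halved. TGI is the concentration that stops growth completely.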 Where a SMILES comes first, the peptide text is derived from it. [ ]: non-standard residue; d: D form. The star is where a group is joined. Cbz = O=C(OCc1ccccc1)*; Boc = CC(C)(C)OC(=O)*; Aib = CC(C)(N)C(=O)O; OBn = c1ccc(CO*)cc1; OtBu = CC(C)(C)O*; βAla = NCCC(=O)O
Legend:
Test in all cases: DTP human tumour cell line panel, 48 h
K-562 leukemia = system: K-562 leukemia
UACC-62 melanoma = system: UACC-62 melanoma
M14 melanoma = system: M14 melanoma
MDA-N = system: MDA-N
KM12 colon = system: KM12 colon
A498 renal = system: A498 renal
HCT-15 colon = system: HCT-15 colon
SW-620 colon = system: SW-620 colon
786-0 renal = system: 786-0 renal

Structure (SMILES) | TGI (K-562 leukemia) [µM] | TGI (UACC-62 melanoma) [µM] | TGI (M14 melanoma) [µM] | TGI (MDA-N) [µM] | TGI (KM12 colon) [µM] | TGI (A498 renal) [µM] | TGI (HCT-15 colon) [µM] | TGI (SW-620 colon) [µM] | TGI (786-0 renal) [µM] | GI50 (K-562 leukemia) [µM] | GI50 (UACC-62 melanoma) [µM] | GI50 (M14 melanoma) [µM] | GI50 (KM12 colon) [µM] | GI50 (A498 renal) [µM] | GI50 (HCT-15 colon) [µM] | GI50 (SW-620 colon) [µM]
COc1ccc(OC)c2cc(Cc3ccc(N(C)C)cc3)c(=O)c(Cc3ccc(N(C)C)cc3)cc12 | > 100 | > 100 | > 100 | > 100 | > 100 | 96.2 | > 100 | > 100 | > 100 |  |  |  |  |  |  | 
CCCCSc1n/c(=C\c2ccc(N(C)C)cc2)c2nnnn12 | > 100 | > 100 | > 100 | > 100 | > 100 | > 100 | > 100 | > 100 | > 100 |  |  |  |  |  |  | 
NC(CCCCNC(=O)OCc1ccccc1)C(=O)NC(CCCCNC(=O)OCc1ccccc1)C(=O)ON1C(=O)CCC1=O (centres undefined) | > 100 | > 100 | > 100 | > 100 | > 100 | > 100 | > 100 | > 100 | > 100 |  |  |  |  |  |  | 
CC(C)(C)OC(=O)CC(NC(=O)OC(C)(C)C)C(=O)NC(CCCCNC(=O)OCc1ccccc1)C(=O)NC(C)(C)C(=O)NCCC(=O)OCc1ccccc1 (centres undefined) (Boc-D(OtBu)K(Cbz)[Aib][βAla]-OBn; configuration not given here) | > 100 | > 100 | > 100 | > 100 | > 100 | > 100 | > 100 | > 100 | > 100 |  |  |  |  |  |  | 
COc1cc2ccnc3c2c(c1O)N(C)C=C3 | > 100 | 25.6 | 37 | > 38.4 | 40.2 | 23.4 | > 64.2 | > 100 | 21.8 |  |  |  |  |  |  | 
CSC1SCC2C(=O)N(C)C3(CC3C)C(=O)OCC(NC(=O)c3nc4ccccc4cc3O)C(=O)NC(C)C(=O)N(C)C1C(=O)N(C)C1(CC1C)C(=O)OCC(NC(=O)c1nc3ccccc3cc1O)C(=O)NC(C)C(=O)N2C (centres undefined) | < 0.0001 | < 0.0001 | < 0.0001 |  | < 0.0001 | < 0.0001 |  | > 100 |  |  |  |  |  |  |  | 
O=C(NCCO)c1ccc(Cl)cc1 | > 100 | > 100 | > 100 | > 100 | > 100 | > 100 | > 100 | > 100 | > 100 |  |  |  |  |  |  | 
COC(=O)c1cncc2c1CC1C3(C(=O)OC)C=NC(C4C(CO)=CCC43)C21C (centres undefined) |  |  | > 100 | > 100 | > 100 | > 100 | > 100 | > 100 | > 100 |  |  |  |  |  |  | 
COc1ccc2c(c1)CCc1c-2n(CCN(C)C)c2ccc(OC)cc12 | > 100 | > 100 | > 100 | 95.2 | 86.7 | 41.1 | > 100 | 74.5 | > 100 |  |  |  |  |  |  | 
CSc1ncc2c(n1)-c1ccccc1OC2N1CCCC1 (centres undefined) | > 100 | > 100 | > 100 | > 100 | > 100 | 26.1 | > 100 | > 100 | > 100 |  |  |  |  |  |  | 
COC(=O)[C@@H]1N2C(=S)N(c3ccccc3)C(=O)[C@H]2SC1(C)C |  | > 100 | > 100 | > 100 | > 100 | > 100 | > 100 | > 100 | > 100 |  |  |  |  |  |  | 
CC(C)(C)N1Cc2ccccc2/C(=C/Sc2ccccc2)C1=O | > 100 | 24.3 | 25.2 | 21.8 | 31.4 | 35.4 | 37 | 27.4 | 24.8 |  |  |  |  |  |  | 
COc1ccc(CNc2nc(NCc3ccc(OC)cc3)nc(N3CCOCC3)n2)cc1 | 26.2 | > 100 | > 100 |  | 8.09 | 93.8 | 6.21 | > 100 | > 100 |  |  |  |  |  |  | 
CN(C(=O)c1ccc(Cl)s1)C(=S)N(C)C(=O)c1ccc(Cl)s1 | > 10 | > 10 | > 10 | > 10 | > 10 | > 10 | > 10 | > 10 | > 10 |  |  |  |  |  |  | 
COC(OC)C(O)C1OC=CC1n1cnc2c(N)ncnc21 (centres undefined) | > 100 | > 100 |  | > 100 | > 100 | > 100 | > 100 | > 100 | > 100 |  |  |  |  |  |  | 
Cc1[nH]c(-c2ccccc2)c(-c2ccc(Cl)cc2)c1C(=O)ONC(=O)c1ccccc1 | 16.7 | 23.3 | 19.9 | 4.45 | > 48.3 | 18.4 | 21.6 | 31.7 | 4.46 |  |  |  |  |  |  | 
Cc1cc(S(=O)(=O)Nc2nc(N)nc(N3N=CCC3C)n2)c(S)cc1Cl (centres undefined) | > 10 |  | > 10 | > 10 | > 10 | > 10 | > 10 | > 10 | > 10 |  |  |  |  |  |  | 
Cc1ccc2c(c1)OC1Nc3ccccc3C1=C2O (centres undefined) | > 100 | 48 | 68 | 68.1 | > 100 | 45.5 | > 100 | > 100 | 66 |  |  |  |  |  |  | 
COC(=O)C(COC(=O)/C=C/c1ccc(OC(C)=O)c(OC(C)=O)c1)OC(=O)/C=C/c1ccc(OC(C)=O)c(OC(C)=O)c1 (centres undefined) | 31.2 | 30.9 | 20.6 | 21.7 | 30.8 | 43.1 | > 100 | 23.5 | 24 |  |  |  |  |  |  | 
CC(C)n1c(=O)n(-c2ccccc2)n(C(C)(C)C)c1=O | > 100 | > 100 | > 100 | > 100 | > 100 | > 100 | > 100 | > 100 | > 100 |  |  |  |  |  |  | 
CCOC(=O)C1=C(C)NC(=S)NC1c1cccc(O)c1 (centres undefined) | > 100 | > 96.6 | 60.5 | 39.3 | > 100 | 87.6 | > 100 | > 100 | > 100 |  |  |  |  |  |  | 
COc1cccc(-c2nc3sccn3c2-c2ccnc(NCCNC(=O)Nc3cccc(C(F)(F)F)c3)n2)c1 | > 100 | 7.48 | 8.48 |  | 10.1 | 17.5 | 16.4 | 91.5 |  | 3.48 | 2.55 | 2.96 | 3.36 | 2.44 | 3.05 | 4.47
